According to patent US9096550B2, “Bryostatin analogues and methods of making and using thereof” (UNIVERSITY OF UTAH RESEARCH FOUNDATION, priority 2008, dated 2015):

Assays:
[1] = tested on: C3H10T1/2 cells; assay: Release of arachidonic acid from C3H10T1/2 cells; format: cell-based, mouse; conditions: % of the maximal PMA-induced response relative to the DMSO control, 2 hour treatment
Description: FIGS. 15A and 15B show the release of arachidonic acid from treated C3H10T1/2 cells. The cells were labeled with [^3H]arachidonic acid for 18 hrs, treated with DMSO as control, different concentrations of PMA (0.1-100 nM), bryostatin 1 (1-1000 nM), the bryologues (1-1000 nM) (A) or 100 nM PMA in combination with 1000 nM bryostatin 1, or the bryologues MERLE 21, 22, 23. The radioactive arachidonic acid released into the medium was quantitated after 2 hour treatment. The response of 100 nM PMA was taken as 100%. Data represent the means+SEM of four (FIG. 15A) or three (FIG. 15B) independent experiments.
C3H10T1/2 cells (ATCC, Manassas, Va.) were plated in 24 well plates and treated with different drugs or with DMSO as control. The release of arachidonic acid after 2 hour treatment was measured as described previously (Dell′Aquila M L, Herald C L, Kamano Y, Pettit G R, Blumberg P M. Differential effects of byrostatins and phorbol esters on arachidonic acid metabolite release and epidermal growth factor binding in C3H10T1/2 cells. Cancer Res 1988; 48: 3702-3708).

[2] = tested on: LNCaP cells; assay: Proliferation of LNCaP cells (Incucyte confluency); format: cell-based, human; conditions: 300 nM PMA combined with 1000 nM compound, 80 hrs
Description: FIGS. 12A-D show the effect of different compounds on the proliferation and apoptosis of LNCaP cells. […] Time-elapsed images were taken with an Incucyte imaging system every hour for 4 days. The proliferation of LNCaP cells is presented as increase in confluency (read by the instrument) at 80 hrs. Data represent the means+SEM of three independent experiments. […] Apoptosis was measured 2 days after treatment by flow cytometry using 7-AAD and Yo-Pro-1 as described in Materials and Methods. Data represent the means+SEM of three independent experiments.
FIGS. 13A and 13B show the proliferation and morphology of LNCaP cells detected by Incucyte. LNCaP cells were treated with DMSO as control, 300 nM PMA, 1000 nM bryostatin 1 or the bryologue MERLE 21, or with 300 nM PMA in combination with 1000 nM bryostatin 1 or the bryologue MERLE 21. Time-elapsed images were taken by the Incucyte imaging system every hour. […] The arrow indicates the time of treatment. Data are representative of three independent experiments.
The extent of confluency of LNCaP cells (from ATCC, Manassas, Va.) and the morphological changes after treatment were followed in real time using Incucyte (Essen Instruments, Ann Arbor, Mich.). Images of LNCaP cells plated into 24 well plates were taken every 1 hour by the instrument before and after treatment for a total of 4 days. The confluency of the cells was calculated by the instrument's program. The proliferation of LNCaP cells was expressed as the difference in cell confluency before and after treatment.

[3] = tested on: U937 cells; assay: Inhibition of U937 cell proliferation; format: cell-based, human
Description: (§1) U937 cells (Sundstrom, C.; Nilsson, K.: Establishment and characterization of a human histiocytic lymphoma cell line (U-937). Int. J. Cancer 1976, 17: 565-577.), purchased from ATCC (Manassas, Va.) and cultured in RPMI-1640 medium supplemented with 10% FBS (ATCC, Manassas, Va.), were plated in 35 mm dishes at a density of 2×10^5 living cells/ml and treated with different concentrations of the drugs or DMSO. After 72 hours, the number of cells in the supernatant (non-attached cells) and the number of attached cells (after trypsinization) were counted using a Beckman particle counter (Beckman Coulter Inc., Fullerton, Calif.). The number of attached cells is expressed as percent of total cells (FIGS. 8-10).
(§2) U937 cells were treated with PMA (0.1-100 nM), bryostatin 1 (1-1000 nM), the indicated compound (1-1000 nM), 10 nM PMA with different concentrations of bryostatin 1 (1-1000 nM) or 10 nM PMA with different concentrations of indicated compound (1-1000 nM). The number of attached and non-attached cells was counted and the number of total cells was expressed as % of control. The bars and error bars represent the average and the standard error of the mean of five independent experiments (FIGS. 8-10).
(§3) U937 cells (Sundstrom and Nilsson, 1976), purchased from ATCC (Manassas, Va.) and cultured in RPMI-1640 medium supplemented with 10% FBS (ATCC, Manassas, Va.), were plated in 35 mm dishes at a density of 1×10^5 living cells/ml and treated with different concentrations of the drugs or DMSO. After 72 hours, the number of cells in the supernatant (non-attached cells) and the number of attached cells (after trypsinization) were counted using a particle counter. The number of attached cells is expressed as percent of total cells.
U937 cells were treated with PMA (0.01-100 nM), bryostatin1 (0.1-1000 nM), analogue 12 (0.1-1000 nM), 10 nM PMA with different concentrations of bryostatin 1 (0.1-1000 nM) or 10 nM PMA with different concentrations of analogue 12 (0.1-1000 nM). The numbers of attached and non-attached cells were counted and the number of total cells was expressed as % of control. The bars and error bars represent the average and the standard error of the mean of at least three independent experiments.
as §3, with “U-937” for “U937”
as §2, with “U-937” for “U937”, “at least three” for “five”, “experiments.” for “experiments (FIGS. 8-10).”

[4] = tested on: U937 cells; assay: Attachment of U937 cells; format: cell-based, human
Description: as §1
(§4) U937 cells were treated with PMA (0.1-100 nM), bryostatin 1 (1-1000 nM), the indicated compound (1-1000 nM), 10 nM PMA with different concentrations of bryostatin 1 (1-1000 nM) or 10 nM PMA with different concentrations of indicated compound (1-1000 nM) for 72 hours. The number of attached cells and total cells were counted and the attached cells were graphed as percent of total cells. The bars and error bars represent the average and the standard error of the mean of five independent experiment (FIGS. 8-10).
as §3
U937 cells were treated with PMA (0.01-100 nM), bryostatin1 (0.1-1000 nM), analogue 12 (MERLE 28) (0.1-1000 nM), 10 nM PMA with different concentrations of bryostatin 1 (0.1-1000 nM) or 10 nM PMA with different concentrations of analogue 12 (0.1-1000 nM). The number of attached cells and total cells were counted and the attached cells were graphed as percent of total cells. The bars and error bars represent the average and the standard error of the mean of at least three independent experiments.
as §3, with “U-937” for “U937”
as §4, with “U-937” for “U937”, “at least three” for “five”, “experiments.” for “experiment (FIGS. 8-10).”

[5] = 10 nM PMA with different concentrations of compound

SMILES: C=C1C[C@@H]2C[C@@H]3CC(=C)C[C@H](/C=C/C(C)(C)[C@]4(O)O[C@@H](C/C(=C\C(=O)OC)[C@@H]4OC(=O)CCCCCCC)C[C@H]([C@@H](C)O)OC(=O)C[C@H](O)C[C@H](C1)O2)O3 [MERLE 22]
- arachidonic acid release, average level of response [1]: 69%
- block of the PMA inhibition of LNCaP cell growth [2]: did not appear to quite reach the level observed for bryostatin 1

SMILES: C=C1C[C@@H]2C[C@@H]3CC(=C)C[C@H](/C=C/C(C)(C)[C@]4(O)O[C@@H](C/C(=C\C(=O)OC)[C@@H]4OC(=O)c4ccccc4)C[C@H]([C@@H](C)O)OC(=O)C[C@H](O)C[C@H](C1)O2)O3 [MERLE 21]
- arachidonic acid release, average level of response [1]: 73%
- block of the PMA inhibition of LNCaP cell growth [2]: did not appear to quite reach the level observed for bryostatin 1

SMILES: C=C1C[C@@H]2C[C@@H]3CC(=C)C[C@H](/C=C/C(C)(C)[C@]4(O)O[C@@H](C/C(=C\C(=O)OC)[C@@H]4OC(=O)/C=C/C=C/CCC)C[C@H]([C@@H](C)O)OC(=O)C[C@H](O)C[C@H](C1)O2)O3 [MERLE 23]
- arachidonic acid release, average level of response [1]: 64%
- block of the PMA inhibition of LNCaP cell growth [2]: did not appear to quite reach the level observed for bryostatin 1

SMILES: C=C1C[C@H]2CC3(O)O[C@H](C[C@@H](O)CC(=O)O[C@@H]([C@@H](C)O)C[C@@H]4C/C(=C\C(=O)OC)[C@H](OC(=O)/C=C/C=C/CCC)[C@@](O)(O4)C(C)(C)/C=C/[C@@H](C1)O2)C[C@H](OC(C)=O)C3(C)C [MERLE 28]
- block of PMA inhibition of U937 cell proliferation [3, 5]: Both of these aspects of bryostatin 1 induced biological response are captured
- inhibition of U937 cell proliferation ([3]; compound alone): very similar to those for bryostatin 1
- block of PMA-induced attachment of U937 cells [4, 5]: functional antagonist of PMA and blocks the effect of the phorbol ester
- attachment of U937 cells ([4]; compound alone, 72 hours): approaches that of bryostatin 1 itself
